From ChEMBL document CHEMBL3352627, “Brocazines A-F, Cytotoxic Bisthiodiketopiperazine Derivatives from Penicillium brocae MA-231, an Endophytic Fungus Derived from the Marine Mangrove Plant Avicennia marina” (J Nat Prod, 2014) come the findings set out here.

Format in all cases: functional, cell-based
One assay deals with SW1990. The assay is described as follows: Cytotoxicity against human SW1990 cells assessed as reduction in cell viability.
Another assay deals with HepG2. The assay is described as follows: Cytotoxicity against human HepG2 cells assessed as reduction in cell viability.
A further assay has as its system HeLa. Description: Cytotoxicity against human HeLa cells assessed as reduction in cell viability.
For the next assay, the system named is MCF7. The assay is described as follows: Cytotoxicity against human MCF7 cells assessed as reduction in cell viability.
In a further assay the test system is DU-145. The assay is described as follows: Cytotoxicity against human DU145 cells assessed as reduction in cell viability.
The subject of another assay is NCI-H460. The assay is described as follows: cells. As to conditions: Homo sapiens.
Another assay concerns SW480. The assay is described as follows: Cytotoxicity against human SW480 cells assessed as reduction in cell viability.
The subject of the next assay is U-251. Description: Cytotoxicity against human U251 cells assessed as reduction in cell viability.
The nature of assay [1]: Cytotoxicity against human SGC7901 cells assessed as reduction in cell viability. As to conditions: SGC-7901.

By IC50 is commonly meant the concentration that gives 50% inhibition.

Description for NCI-H460: Cytotoxicity against human NCI-H460 cells assessed as reduction in cell viability

For the compound `Nc1ccn([C@@H]2O[C@H](CO)[C@@H](O)C2(F)F)c(=O)n1` [GEMCITABINE], in the assay with SW1990, the IC50 worked out at 2.2 µM.
Consider `CO[C@H]1CC(=O)[C@@H]2C[C@@]34SS[C@]5(C[C@@H]6C(=O)C=C[C@H](O)[C@H]6N5C3=O)C(=O)N4[C@@H]2[C@H]1O`, for which the IC50 in the assay on HepG2 was found to be 6.4 µM; in the assay with HeLa it was 6.8 µM; with MCF7 it was 5.5 µM; with DU-145, 4.2 µM; in the assay on NCI-H460, 4.9 µM; with SW1990, 6 µM. Moreover, the IC50 in the assay with SW480 stood at 2 µM; with U-251, 5.2 µM; in assay [1], 2.6 µM.
Regarding `O=C1C=C[C@H](O)[C@@H]2[C@@H]1C[C@@]13SS[C@]4(C[C@H]5[C@@H]([C@@H](O)C=C[C@@H]5O)N4C1=O)C(=O)N23`, the IC50 came to 2.9 µM with HepG2; 6.9 µM with HeLa; 3 µM in the assay on MCF7; 1.7 µM with DU-145; 0.89 µM in the assay on NCI-H460; 5.9 µM in the assay with SW1990. For the same compound, the IC50 in the assay with U-251 worked out at 5.3 µM; in assay [1] it was 8 µM.
For `COc1cccc2c1C(=O)c1c(O)c3c(c(O)c1C2=O)C[C@@](O)(C(=O)CO)C[C@@H]3O[C@H]1C[C@H](N)[C@H](O)[C@H](C)O1` [DOXORUBICIN], the IC50 in assay [1] is 2.9 µM.
As to `O=C1N2[C@H]3[C@H](C[C@]24SS[C@]12C[C@H]1[C@@H]([C@@H](O)C=C[C@@H]1O)N2C4=O)[C@@H](O)C=C[C@@H]3O`, the IC50 in the assay on HepG2 amounted to 5.6 µM; in the assay with HeLa, 4.3 µM; with MCF7, 9 µM; in the assay with DU-145, 11.2 µM; in the assay on NCI-H460, 12.4 µM; in the assay with SW1990 it was 2.1 µM. The IC50 in the assay on U-251 stood at 6.1 µM; in [1], 3.3 µM.
Take `O=C1C[C@H](O)[C@H](O)[C@@H]2[C@H]1C[C@@]13SS[C@]4(C[C@H]5[C@@H]([C@@H](O)C=C[C@@H]5O)N4C1=O)C(=O)N23`: the IC50 with HepG2, in the assay on HeLa, in the assay on MCF7, with DU-145, in the assay with NCI-H460 and with SW1990 was more than 20 µM throughout. Moreover, the IC50 (in the assay on SW480; with U-251; in assay [1]) was more than 20 µM each time.
As to `CO[C@H]1CC(=O)[C@@H]2C[C@@]34SS[C@]5(C[C@H]6C(=O)C[C@H](O)[C@H](O)[C@H]6N5C3=O)C(=O)N4[C@@H]2[C@H]1O`, the IC50 in the assay on HepG2, in the assay on HeLa, in the assay on MCF7, with DU-145, with NCI-H460 and in the assay on SW1990 was more than 20 µM throughout. The IC50 (in the assay with SW480; in the assay on U-251; in assay [1]) was more than 20 µM each time.
On to `O=C1C=C[C@H](O)[C@@H]2[C@@H]1C[C@@]13SS[C@]4(C[C@H]5C(=O)CC[C@H](O)[C@H]5N4C1=O)C(=O)N23`, for which the IC50 with HepG2 stood at 5.5 µM; in the assay with HeLa, 5.3 µM; with MCF7, 6.1 µM; with DU-145 it was 3.6 µM; in the assay on NCI-H460 it was 4 µM; in the assay on SW1990 it was 6.4 µM. Also, the half-inhibitory concentration (IC50) came to 1.2 µM in the assay with SW480, 3.5 µM in the assay with U-251 and 2.4 µM in assay [1].
With `CC(=O)O[C@H]1C(=O)[C@@]2(C)[C@H]([C@H](OC(=O)c3ccccc3)[C@]3(O)C[C@H](OC(=O)[C@H](O)[C@@H](NC(=O)c4ccccc4)c4ccccc4)C(C)=C1C3(C)C)[C@]1(OC(C)=O)CO[C@@H]1C[C@@H]2O` [PACLITAXEL], the IC50 stood at 5 µM in the assay with HeLa, 1.8 µM in the assay on MCF7 and 1.5 µM in the assay on DU-145.
